Source: ChEMBL document CHEMBL1139033, “Design, synthesis, and structure-activity relationship of novel thiophene derivatives for beta-amyloid plaque imaging” (Bioorg Med Chem Lett, 2006)

target: Amyloid-beta precursor protein (Homo sapiens, UniProt P05067); assay: Displacement of [125I]IMPY from beta amyloid plaque in brain homogenates; format: tissue-based
Sequence (P05067 whole entry): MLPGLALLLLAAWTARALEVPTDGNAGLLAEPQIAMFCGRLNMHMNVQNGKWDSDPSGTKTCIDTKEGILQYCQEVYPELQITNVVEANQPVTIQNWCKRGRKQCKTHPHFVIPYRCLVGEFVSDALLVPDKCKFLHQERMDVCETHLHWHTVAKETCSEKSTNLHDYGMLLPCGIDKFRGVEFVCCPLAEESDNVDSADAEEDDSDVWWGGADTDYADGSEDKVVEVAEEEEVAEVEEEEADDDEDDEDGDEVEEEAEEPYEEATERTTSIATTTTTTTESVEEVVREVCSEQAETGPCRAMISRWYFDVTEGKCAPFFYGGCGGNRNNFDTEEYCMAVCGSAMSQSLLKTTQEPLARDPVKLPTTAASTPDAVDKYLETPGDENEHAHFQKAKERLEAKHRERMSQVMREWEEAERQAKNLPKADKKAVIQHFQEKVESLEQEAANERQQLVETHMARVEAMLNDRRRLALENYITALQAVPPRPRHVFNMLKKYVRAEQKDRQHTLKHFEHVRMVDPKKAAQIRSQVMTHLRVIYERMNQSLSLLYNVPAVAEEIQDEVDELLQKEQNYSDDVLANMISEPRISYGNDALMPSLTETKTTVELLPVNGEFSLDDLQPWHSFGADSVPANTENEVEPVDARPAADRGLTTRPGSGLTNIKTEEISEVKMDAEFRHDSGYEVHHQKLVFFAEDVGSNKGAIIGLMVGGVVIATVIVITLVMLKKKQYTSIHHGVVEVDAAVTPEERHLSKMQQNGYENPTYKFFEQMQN

Point of comparison: `COc1ccc(-c2ccc(-c3ccc(N)cc3)s2)cc1`, Ki 5.6 nM. Against it:
- COc1ccc(-c2ccc(-c3ccc(O)cc3)s2)cc1 — within 1.5-fold, 6.1 nM
- COc1ccccc1-c1ccc(-c2ccccc2OC)s1 — 110-fold higher, 625 nM
- COc1ccc(-c2ccc(-c3ccc(OC)cc3)s2)cc1 — 19-fold higher, 108 nM
- Oc1ccc(-c2ccc(-c3ccc(O)cc3)s2)cc1 — within 1.5-fold, 4 nM
- CN(C)c1ccc(-c2ccc(-c3ccc(O)cc3)s2)cc1 — within 1.5-fold, 7.5 nM
- O=[N+]([O-])c1ccc(-c2ccc(-c3ccc([N+](=O)[O-])cc3)s2)cc1 — 33-fold higher, 185 nM
- CSc1ccc(-c2ccc(-c3ccc(SC)cc3)s2)cc1 — higher, > 1000 nM
- COc1ccc(-c2ccc(-c3ccc(N(C)C)cc3)s2)cc1 — 89-fold higher, 500 nM
- COc1ccc(-c2ccc(-c3ccc(NCCF)cc3)s2)cc1 — 3.8-fold higher, 21.5 nM
- Oc1ccc(-c2ccc(-c3ccc(NCCF)cc3)s2)cc1 — within 1.5-fold, 3.9 nM
- CNc1ccc(-c2ccc(-c3ccc(O)cc3)s2)cc1 — 5.6-fold higher, 31.2 nM
- Nc1ccc(-c2ccc(-c3ccc(O)cc3)s2)cc1 — 1.7-fold higher, 9.6 nM
- Nc1ccc(-c2ccc(-c3ccc(N)cc3)s2)cc1 — within 1.5-fold, 6.1 nM
- COc1ccc(-c2ccc(-c3ccc([N+](=O)[O-])cc3)s2)cc1 — 3.3-fold higher, 18.5 nM
